Test [1] deals with Hepatitis C virus. Kind of test: Antiviral activity against Hepatitis C virus subtype 1a by cell based replicon assay. Format: functional, organism-based, Hepacivirus hominis. (Replicon systems follow genome replication, usually without infectious particles.)
In test [2] the test system is Hepatitis C virus. Kind of test: Antiviral activity against Hepatitis C virus subtype 1b by cell based replicon assay. The test is classed as functional, organism-based, Hepacivirus hominis, genotype 1b.
In test [3] the test system is Hepatitis C virus. The test is described as follows: Antiviral activity against Hepatitis C virus expressing NS5B Y452H mutant by cell based replicon assay. The test is classed as functional, organism-based, Hepacivirus hominis.
Test [4] has as its system Hepatitis C virus. The test is described as follows: Inhibition of Hepatitis C virus subtype 1b wild-type NS5B expressed in Escherichia coli BL21(DE3) assessed as decrease in [3H]-UTP incorporation using polyA template/biotin-labeled dT primer by SPA method.
The nature of test [5]: Inhibition of Hepatitis C virus subtype 1a wild-type NS5B expressed in Escherichia coli BL21(DE3) assessed as decrease in [3H]-UTP incorporation using polyA template/biotin-labeled dT primer by SPA method.
Where [6] appears, read: Hepatitis C virus, subtype 1a, read-out: EC50.
The mark [7] stands for this setting: Hepatitis C virus, genotype 1b, read-out: EC50.

Molecules are shown by their SMILES. A value given as a limit tells only on which side of the number the result lay.

Take `CCc1ccc(S(=O)(=O)N2CCN(c3cc(OC)nc(OC)n3)CC2C(=O)NCc2ccc(OC(F)(F)F)cc2)cc1` (racemic): the EC50 with Hepatitis C virus [1] (setting [6]) came out at 9200 nM; in the test on Hepatitis C virus [2] (setting [7]) it was 500 nM.
The corresponding values for `COC(=O)c1cnc(N2CCN(S(=O)(=O)c3ccc(OC(F)(F)F)cc3)C(C(=O)NCc3ccc(OC(F)(F)F)cc3)C2)cn1` (racemic) are 1600 nM and 140 nM.
The corresponding values for `COc1cc(N2CCN(S(=O)(=O)c3ccc(C(F)(F)F)cc3)C(C(=O)NCc3ccc(OC(F)(F)F)cc3)C2)nc(OC)n1` (racemic) are 13000 nM and 1200 nM.
The corresponding values for `CCc1ccc(S(=O)(=O)N2CCN(c3cc(OC)nc(OC)n3)CC2C(=O)NCc2ccc(C)cc2)cc1` (racemic) are 20500 nM and 1700 nM.
Turning to `COc1cc(N2CCN(S(=O)(=O)c3ccc(OC)c(OC)c3)C(C(=O)NCc3ccc(OC(F)(F)F)cc3)C2)nc(OC)n1` (racemic), the 50% effective concentration (EC50) in the test with Hepatitis C virus [1] (setting [6]) is 13000 nM; in the test with Hepatitis C virus [2] (setting [7]) it was 1100 nM.
As to `COc1cc(N2CCN(S(=O)(=O)c3ccccc3)C(C(=O)NCc3ccc(OC(F)(F)F)cc3)C2)nc(OC)n1` (racemic), the EC50 result in the test on Hepatitis C virus [1] was “Not Active”; with Hepatitis C virus [2] (setting [7]), 20300 nM.
For the compound `CNC(=O)c1ccc(N2CCN(S(=O)(=O)c3ccc(OC(F)(F)F)cc3)C(C(=O)NCc3ccc(OC(F)(F)F)cc3)C2)nn1` (racemic), the values for the EC50 with Hepatitis C virus [1] (setting [6]) and in the test on Hepatitis C virus [2] (setting [7]) were 330 nM and 20 nM, respectively.
With `CCc1ccc(S(=O)(=O)N2CCN(c3cc(OC)nc(OC)n3)CC2C(=O)NCc2ccc(-c3cccs3)cc2)cc1` (racemic), the values for the EC50 in the test with Hepatitis C virus [1] (setting [6]) and with Hepatitis C virus [2] (setting [7]) were 47000 nM and 1200 nM, respectively.
Consider `COc1cc(N2CCN(S(=O)(=O)C3CCCCC3)C(C(=O)NCc3ccc(OC(F)(F)F)cc3)C2)nc(OC)n1` (racemic), for which the EC50 result with Hepatitis C virus [1] and in the test with Hepatitis C virus [2] was “Not Active” in each case.
Take `CC[C@H](C)NC(=O)c1ccc(N2CCN(S(=O)(=O)c3ccc(OC(F)(F)F)cc3)[C@@H](C(=O)NCc3ccc(OC(F)(F)F)cc3)C2)nn1`: the EC50 in the test on Hepatitis C virus [3] was determined as 400 nM. The IC50 in the test with Hepatitis C virus [4] was 13 nM.
`CCc1ccc(S(=O)(=O)N2CCN(c3cc(OC)nc(OC)n3)CC2C(=O)NCc2ccccc2Cl)cc1` (racemic): the EC50 with Hepatitis C virus [1] (setting [6]) was above 50000 nM; in the test on Hepatitis C virus [2] (setting [7]), 3700 nM.
Taken in the same sequence, the figures for `COc1cc(N2CCN(S(=O)(=O)c3ccc(-c4ccccc4)cc3)C(C(=O)NCc3ccc(OC(F)(F)F)cc3)C2)nc(OC)n1` (racemic) were 56000 nM and 2400 nM.
Regarding `CCc1ccc(S(=O)(=O)N2CCN(c3cc(OC)nc(OC)n3)CC2C(=O)NCC2CC2)cc1` (racemic), the EC50 entry with Hepatitis C virus [1] and in the test on Hepatitis C virus [2] was “Not Active” each time.
With `COc1ccc(S(=O)(=O)N2CCN(c3cc(OC)nc(OC)n3)CC2C(=O)NCc2ccc(OC(F)(F)F)cc2)cc1` (racemic), the EC50 in the test with Hepatitis C virus [1] (setting [6]) is 64000 nM; in the test on Hepatitis C virus [2] (setting [7]) it was 5900 nM.
Turning to `O=C(O)c1ccc(N2CCN(S(=O)(=O)c3ccc(OC(F)(F)F)cc3)C(C(=O)NCc3ccc(OC(F)(F)F)cc3)C2)nn1` (racemic), the EC50 result with Hepatitis C virus [1] and in the test with Hepatitis C virus [2] was “Not Active” each time.
For `COc1cc(N2CCN(S(=O)(=O)c3ccccc3F)C(C(=O)NCc3ccc(OC(F)(F)F)cc3)C2)nc(OC)n1` (racemic), the EC50 entry with Hepatitis C virus [1] and in the test with Hepatitis C virus [2] was “Not Active” each time.
`CCc1ccc(S(=O)(=O)N2CCN(c3cc(OC)nc(OC)n3)CC2C(=O)NCc2ccc(Cl)cc2Cl)cc1` (racemic): the EC50 in the test with Hepatitis C virus [1] (setting [6]) is above 50000 nM; in the test with Hepatitis C virus [2] (setting [7]), 2400 nM.
For `COc1cc(N2CCN(S(=O)(=O)c3ccc(F)cc3)C(C(=O)NCc3ccc(OC(F)(F)F)cc3)C2)nc(OC)n1` (racemic), the EC50 entry is “Not Active” in the test with Hepatitis C virus [1] and 8100 nM in the test with Hepatitis C virus [2] (setting [7]).
`COc1cc(N2CCN(S(=O)(=O)c3cccc(C(F)(F)F)c3)C(C(=O)NCc3ccc(OC(F)(F)F)cc3)C2)nc(OC)n1` (racemic): the 50% effective concentration (EC50) in the test with Hepatitis C virus [1] (setting [6]) came out at 53000 nM; in the test with Hepatitis C virus [2] (setting [7]) it was 6200 nM.
The corresponding values for `CCc1ccc(S(=O)(=O)N2CCN(c3cc(OC)nc(OC)n3)CC2C(=O)N(C)Cc2ccccc2)cc1` (racemic) are above 50000 nM and above 50000 nM.
Turning to `COC(=O)c1ccc(N2CCN(S(=O)(=O)c3ccc(OC(F)(F)F)cc3)C(C(=O)NCc3ccc(OC(F)(F)F)cc3)C2)nn1` (racemic), the 50% effective concentration (EC50) turned out to be 3900 nM with Hepatitis C virus [1] (setting [6]) and 380 nM in the test on Hepatitis C virus [2] (setting [7]).
In the case of `CCc1ccc(S(=O)(=O)N2CCN(c3cc(OC)nc(OC)n3)C[C@@H]2C(=O)NCc2ccc(OC)cc2)cc1`, the results for the EC50 in the test with Hepatitis C virus [1] (setting [6]) and with Hepatitis C virus [2] (setting [7]) were 6200 nM and 900 nM, respectively.
On to `CC(C)NC(=O)c1ccc(N2CCN(S(=O)(=O)c3ccc(OC(F)(F)F)cc3)[C@@H](C(=O)NCc3ccc(OC(F)(F)F)cc3)C2)nn1`, for which the EC50 with Hepatitis C virus [1] (setting [6]) worked out at 139 nM; with Hepatitis C virus [2] (setting [7]), 8 nM.
As for `CCc1ccc(S(=O)(=O)N2CCN(c3cc(OC)nc(OC)n3)CC2C(=O)NCc2ccccc2)cc1` (racemic), the results for the EC50 entry with Hepatitis C virus [1] and in the test on Hepatitis C virus [2] (setting [7]) were “Not Active” and 8800 nM, respectively.
Turning to `CCc1ccc(S(=O)(=O)N2CCN(c3cc(OC)nc(OC)n3)CC2C(=O)NCc2ccc(Cl)cc2)cc1` (racemic), the values for the EC50 with Hepatitis C virus [1] (setting [6]) and in the test on Hepatitis C virus [2] (setting [7]) were 30800 nM and 2100 nM, respectively.
The corresponding values for `CNC(=O)c1cnc(N2CCN(S(=O)(=O)c3ccc(OC(F)(F)F)cc3)C(C(=O)NCc3ccc(OC(F)(F)F)cc3)C2)cn1` (racemic) are 2230 nM and 220 nM.
With `COc1cc(N2CCN(S(=O)(=O)c3cccc(OC(F)(F)F)c3)C(C(=O)NCc3ccc(OC(F)(F)F)cc3)C2)nc(OC)n1` (racemic), the EC50 in the test on Hepatitis C virus [1] (setting [6]) was found to be 58000 nM; with Hepatitis C virus [2] (setting [7]), 5300 nM.
Taken in the same sequence, the figures for `CCc1ccc(S(=O)(=O)N2CCN(c3cc(OC)nc(OC)n3)CC2C(=O)NCc2ccc(OC)cc2OC)cc1` (racemic) were 12400 nM and 1200 nM.
As for `CCc1ccc(S(=O)(=O)N2CCN(c3cc(OC)nc(OC)n3)C[C@H]2C(=O)NCc2ccc(OC)cc2)cc1`, the results for the EC50 with Hepatitis C virus [1] (setting [6]) and with Hepatitis C virus [2] (setting [7]) were 14100 nM and 10100 nM, respectively.
Taken in the same sequence, the figures for `CCc1ccc(S(=O)(=O)N2CCN(c3cc(OC)nc(OC)n3)CC2C(=O)NCc2ccc(OC)c(OC)c2)cc1` (racemic) were 14600 nM and 900 nM.
In the case of `COc1cc(N2CCN(S(=O)(=O)c3cccc(-c4ccc(F)cc4)c3)C(C(=O)NCc3ccc(OC(F)(F)F)cc3)C2)nc(OC)n1` (racemic), the EC50 entry in the test with Hepatitis C virus [1] and in the test with Hepatitis C virus [2] was “Not Active” in each case.
Regarding `COc1cc(N2CCN(S(=O)(=O)c3cccc(C)c3)C(C(=O)NCc3ccc(OC(F)(F)F)cc3)C2)nc(OC)n1` (racemic), the EC50 was 41000 nM in the test with Hepatitis C virus [1] (setting [6]) and 1400 nM with Hepatitis C virus [2] (setting [7]).
As to `CNC(=O)c1ccc(N2CCN(S(=O)(=O)c3ccc(OC(F)(F)F)cc3)[C@@H](C(=O)NCc3ccc(OC(F)(F)F)cc3)C2)nn1`, the EC50 in the test with Hepatitis C virus [1] (setting [6]) came out at 220 nM; with Hepatitis C virus [2] (setting [7]), 7 nM.
The corresponding values for `COc1cc(N2CCN(S(=O)(=O)c3ccc(OC(F)(F)F)cc3)C(C(=O)NCc3ccc(OC(F)(F)F)cc3)C2)nc(OC)n1` (racemic) are 8100 nM and 700 nM.
Consider `O=C(O)c1cnc(N2CCN(S(=O)(=O)c3ccc(OC(F)(F)F)cc3)C(C(=O)NCc3ccc(OC(F)(F)F)cc3)C2)cn1` (racemic), for which the EC50 entry in the test on Hepatitis C virus [1] and with Hepatitis C virus [2] was “Not Active” each time.
Turning to `CCc1ccc(S(=O)(=O)N2CCN(c3cc(OC)nc(OC)n3)CC2C(=O)NCc2c(C)nn(-c3ccccc3)c2C)cc1` (racemic), the EC50 with Hepatitis C virus [1] (setting [6]) worked out at 20800 nM; in the test on Hepatitis C virus [2] (setting [7]) it was 2100 nM.
`CCc1ccc(S(=O)(=O)N2CCN(c3cc(OC)nc(OC)n3)CC2C(=O)NCc2ccc(OC)cc2)cc1` (racemic): the IC50 with Hepatitis C virus [4] stood at 300 nM; in test [5], 12500 nM. Further, the EC50 with Hepatitis C virus [1] (setting [6]) was found to be 23000 nM; in the test on Hepatitis C virus [2] (setting [7]), 2200 nM.
Regarding `CCC(C)(C)NC(=O)c1ccc(N2CCN(S(=O)(=O)c3ccc(OC(F)(F)F)cc3)C(C(=O)NCc3ccc(OC(F)(F)F)cc3)C2)nn1` (racemic), the EC50 turned out to be 460 nM with Hepatitis C virus [1] (setting [6]) and 43 nM in the test on Hepatitis C virus [2] (setting [7]).

In general, EC50 refers to the concentration that produces a half-maximal response. As a reminder, the IC50 is the point on the concentration scale where inhibition reaches its midpoint.

These data come from ChEMBL document CHEMBL1772979, “SAR studies on a series of N-benzyl-4-heteroaryl-1-(phenylsulfonyl)piperazine-2-carboxamides: potent inhibitors of the polymerase enzyme (NS5B) of the hepatitis C virus” (Bioorg Med Chem Lett, 2011).
